Here are results for nine compounds from publication PMC10728220, “Novel 3-(pyrazol-4-yl)-2-(1H-indole-3-carbonyl)acrylonitrile derivatives induce intrinsic and extrinsic apoptotic death mediated P53 in HCT116 colon carcinoma” (Scientific Reports, 2023).

Converted amounts (≈) assume the structure as drawn.

Series [1] relates to A549. Set-up: method as in doi:10.1007/s00706-021-02886-5. The note with it: cited from earlier work.
The subject of series [2] is HepG2. Set-up: method as in doi:10.1007/s00706-021-02886-5. The note with it: cited from earlier work.
Series [3] relates to normal human skin melanocyte cell line (HFB4). Briefly: Cytotoxic MTT assay, normal HFB4 cells. Format: cell-based. The note with it: 48 h treatment. On the procedure:
(§1) MTT protocol was performed to study the viability of cells after treatment with the tested compounds. The studied cell lines (A549 and HCT116) were cultured and grown in RPMI‐1640 media, while HFB4 cells were reserved in DMEM‐F12 media. Both media were supplemented with 10% FBS, 1% L‐glutamine, and 1% antibiotic–antimycotic mixture. The cell lines were grown at conditions of 37 °C and 5% CO2. 10 × 10^3 of A549, and HCT116 cells and the same count of normal melanocytes (HFB4) were cultured in a 96‐well plate. The selected cultured cells were kept at 37°C and 5% CO2 overnight. Then, the medium was discarded after 24 h of incubation, and 100 µL from different concentrations of the studied compounds dissolved in fresh medium without serum, with final concentrations of 100, 50, 25, 12.5, 6.25, 3.125, 1.56, and 0.78 µg/mL was added. The treated cells were then incubated for 48 h. After that, 50 µL of MTT was added into each well for 4 h for the formazan crystals to be formed. Finally, 200 µl of 10% sodium dodecyl sulphate (SDS) was added to each well, and plates were kept at room temperature overnight to allow the reaction to be stopped. The optical density at 575 nm was read using a microplate multi-well reader, and the percentage of cell viability was calculated. The dose–response curve was drawn to calculate the IC50 values for each compound using the prism GraphPad 5 program, [84]. 5 Fluorouracil, a commercial anticancer drug was used as a reference drug (positive control). Negative untreated cell control was used in this assay.
On the technique in general: Tetrazolium dyes change colour on reduction, which living cells bring about.

Series [4] concerns colorectal carcinoma (HCT116). Briefly: Cytotoxic MTT assay, HCT116. Format: cell-based, human. The note with it: Homo sapiens, HCT-116; MTT, 48 h treatment. Here is the method: as §1
Another series deals with lung carcinoma (A549). Briefly: Cytotoxic MTT assay, A549. Format: cell-based. The note with it: Homo sapiens, 48 h treatment. Here is the method: as §1
The next series concerns MCF-7. The arrangement: method as in Jumaah et al., 65. The note with it: ref Jumaah et al., 65; cited from earlier work.
Series [5] concerns A549. The arrangement: method as in PMID 34939695. The note with it: previous study of the authors; cited from earlier work.
The test system of series [6] is HepG2. Set-up: method as in PMID 34939695. The note with it: previous study of the authors; cited from earlier work.

On to `Cc1ccc(C=CC(=O)c2c(C)nn(-c3ccc([N+](=O)[O-])cc3)c2C)cc1` [1-[3,5-dimethyl-1-(4-nitrophenyl)-1H-pyrazol-4-yl]-3-(p-tolyl) prop-2-en-1-one], for which the “IC50 A549” value with A549 [1] was 44.3 µg/mL (≈ 123 µM). Moreover, the “IC50 HepG2” value in the series on HepG2 [2] was 57.9 µg/mL (≈ 160 µM).
As to `COc1ccc(-c2nn(-c3ccccc3)cc2/C=C(\C#N)C(=O)c2c[nH]c3ccccc23)cc1` [Compound 7c, (E)-2-(1H-Indole-3-carbonyl)-3-(3-(4-methoxyphenyl)-1-phenyl-1H-pyrazol-4-yl)acrylonitrile], the melting point (as a rule, the temperature, or range, at which the solid turns liquid) was in the range of 252 to 254 °C. Moreover, the IC50 (in general, the concentration that gives 50% inhibition) in [3] is greater than 100 µg/mL. Besides, the IC50 in series [4] is greater than 100 µg/mL. In the series with lung carcinoma (A549), the IC50 was greater than 100 µg/mL.
In turn, `Cc1ccc(-c2nn(-c3ccccc3)cc2/C=C(\C#N)C(=O)c2c[nH]c3ccccc23)cc1` [Compound 7b, (E)-2-(1H-Indole-3-carbonyl)-3-(1-phenyl-3-(p-tolyl)-1H-pyrazol-4-yl)acrylonitrile] showed a melting point of 288 to 290 °C. In [3], this compound gave an IC50 greater than 100 µg/mL. This compound also yielded an IC50 in series [4] greater than 100 µg/mL. Besides, in the series on lung carcinoma (A549), the IC50 was greater than 100 µg/mL.
`N#C/C(=C\c1cn(-c2ccccc2)nc1-c1ccccc1)C(=O)c1c[nH]c2ccccc12` [Compound 7a, (E)-3-(1,3-Diphenyl-1H-pyrazol-4-yl)-2-(1H-indole-3-carbonyl)acrylonitrile] yielded a melting point of 250 to 252 °C. In addition, the concentration for half-maximal inhibition (IC50) in series [3] is greater than 100 µg/mL. The same compound came in with an IC50 in series [4] of 93.1 µg/mL (≈ 225 µM). The compound also returned an IC50 with lung carcinoma (A549) greater than 100 µg/mL.
`N#C/C(=C\c1cn(-c2ccccc2)nc1-c1ccc(Cl)cc1)C(=O)c1c[nH]c2ccccc12` [Compound 7e, (E)-3-(3-(4-Chlorophenyl)-1-phenyl-1H-pyrazol-4-yl)-2-(1H-indole-3-carbonyl)acrylonitrile] showed a melting point of 296 to 298 °C. Moreover, the IC50 in series [3] was greater than 100 µg/mL. Moreover, the IC50 in [4] is greater than 100 µg/mL. The same compound gave an IC50 in the series on lung carcinoma (A549) greater than 100 µg/mL.
In the case of `O=c1[nH]cc(F)c(=O)[nH]1` [5 FU, 5-Fluorouracil, reference compound], the figures for the IC50 (in [3]; in series [4]; in the series on lung carcinoma (A549)) were 223 µg/mL (≈ 1710 µM), 77.2 µg/mL (≈ 593 µM) and 371 µg/mL (≈ 2850 µM), respectively.
`N#C/C(=C\c1cn(-c2ccccc2)nc1-c1ccc(O)cc1)C(=O)c1c[nH]c2ccccc12` [Compound 7d, (E)-3-(3-(4-Hydroxyphenyl)-1-phenyl-1H-pyrazol-4-yl)-2-(1H-indole-3-carbonyl)acrylonitrile]: the melting point lay within 288 to 290 °C. Further, in series [3], the IC50 was greater than 100 µg/mL. Also, the IC50 in [4] was found to be 43 µg/mL (≈ 99.9 µM). In addition, the IC50 with lung carcinoma (A549) is greater than 100 µg/mL.
With `COc1ccc2c(/C=C/C(=O)c3cc(OC)c(OC)c(OC)c3)cn(C)c2c1` [(E)-3-(6-methoxy-1-methyl-1H-indol-3-yl)-1-(3,4,5-tri-methoxyphenyl)-prop-2-en-1-one], the half-maximal inhibitory concentration (IC50) in the series on MCF-7 was 19.2 µM.
For the compound 3-(thiophen-2-yl)pyrazol-4-yl)chalcone, the IC50 is 66.6 µM in the series on A549 [5] and 64 µM with HepG2 [6].
